± gives the uncertainty stated by the source.
Experiment: xn = mol fraction of the nth substance listed

CC(O)CN(C)C (stereo not drawn) + NCc1ccccc1
viscosity (293.15 K, 101 kPa, x1 = 0.1003): 1.87 ± 0.04 mPa·s
viscosity (293.15 K, 101 kPa, x1 = 0.1998): 1.91 ± 0.04 mPa·s
viscosity (293.15 K, 101 kPa, x1 = 0.3): 1.92 ± 0.04 mPa·s
viscosity (293.15 K, 101 kPa, x1 = 0.4001): 1.91 ± 0.04 mPa·s
viscosity (293.15 K, 101 kPa, x1 = 0.5002): 1.88 ± 0.04 mPa·s
viscosity (293.15 K, 101 kPa, x1 = 0.5999): 1.84 ± 0.04 mPa·s
viscosity (293.15 K, 101 kPa, x1 = 0.7): 1.78 ± 0.04 mPa·s
viscosity (293.15 K, 101 kPa, x1 = 0.8): 1.7 ± 0.04 mPa·s
viscosity (293.15 K, 101 kPa, x1 = 0.8997): 1.6 ± 0.04 mPa·s
viscosity (303.15 K, 101 kPa, x1 = 0.1003): 1.5 ± 0.04 mPa·s
viscosity (303.15 K, 101 kPa, x1 = 0.1998): 1.51 ± 0.04 mPa·s
viscosity (303.15 K, 101 kPa, x1 = 0.3): 1.51 ± 0.04 mPa·s
viscosity (303.15 K, 101 kPa, x1 = 0.4001): 1.5 ± 0.03 mPa·s
viscosity (303.15 K, 101 kPa, x1 = 0.5002): 1.48 ± 0.03 mPa·s
viscosity (303.15 K, 101 kPa, x1 = 0.5999): 1.44 ± 0.03 mPa·s
viscosity (303.15 K, 101 kPa, x1 = 0.7): 1.39 ± 0.03 mPa·s
viscosity (303.15 K, 101 kPa, x1 = 0.8): 1.33 ± 0.03 mPa·s
viscosity (303.15 K, 101 kPa, x1 = 0.8997): 1.25 ± 0.03 mPa·s
viscosity (313.15 K, 101 kPa, x1 = 0.1003): 1.23 ± 0.03 mPa·s
viscosity (313.15 K, 101 kPa, x1 = 0.1998): 1.23 ± 0.03 mPa·s
viscosity (313.15 K, 101 kPa, x1 = 0.3): 1.22 ± 0.03 mPa·s
viscosity (313.15 K, 101 kPa, x1 = 0.4001): 1.21 ± 0.03 mPa·s
viscosity (313.15 K, 101 kPa, x1 = 0.5002): 1.18 ± 0.03 mPa·s
viscosity (313.15 K, 101 kPa, x1 = 0.5999): 1.14 ± 0.03 mPa·s
viscosity (313.15 K, 101 kPa, x1 = 0.7): 1.1 ± 0.03 mPa·s
viscosity (313.15 K, 101 kPa, x1 = 0.8): 1.05 ± 0.02 mPa·s
viscosity (313.15 K, 101 kPa, x1 = 0.8997): 1 ± 0.02 mPa·s
viscosity (323.15 K, 101 kPa, x1 = 0.1003): 1.06 ± 0.03 mPa·s
viscosity (323.15 K, 101 kPa, x1 = 0.1998): 1.05 ± 0.02 mPa·s
viscosity (323.15 K, 101 kPa, x1 = 0.3): 1.03 ± 0.02 mPa·s
viscosity (323.15 K, 101 kPa, x1 = 0.4001): 1.01 ± 0.02 mPa·s
viscosity (323.15 K, 101 kPa, x1 = 0.5002): 0.98 ± 0.02 mPa·s
viscosity (323.15 K, 101 kPa, x1 = 0.5999): 0.95 ± 0.02 mPa·s
viscosity (323.15 K, 101 kPa, x1 = 0.7): 0.91 ± 0.02 mPa·s
viscosity (323.15 K, 101 kPa, x1 = 0.8): 0.87 ± 0.02 mPa·s
viscosity (323.15 K, 101 kPa, x1 = 0.8997): 0.83 ± 0.02 mPa·s

O=[N+]([O-])c1ccccc1O + Nc1ccccc1
viscosity (303.15 K, 101 kPa, x1 = 0.07555): 2.972 ± 0.029 mPa·s
viscosity (303.15 K, 101 kPa, x1 = 0.1616): 2.863 ± 0.028 mPa·s
viscosity (303.15 K, 101 kPa, x1 = 0.246): 2.805 ± 0.027 mPa·s
viscosity (303.15 K, 101 kPa, x1 = 0.3265): 2.802 ± 0.027 mPa·s
viscosity (303.15 K, 101 kPa, x1 = 0.4134): 2.828 ± 0.028 mPa·s
viscosity (303.15 K, 101 kPa, x1 = 0.5065): 2.881 ± 0.028 mPa·s
viscosity (303.15 K, 101 kPa, x1 = 0.5908): 2.952 ± 0.029 mPa·s
viscosity (303.15 K, 101 kPa, x1 = 0.6928): 3.068 ± 0.03 mPa·s
viscosity (303.15 K, 101 kPa, x1 = 0.7919): 3.225 ± 0.032 mPa·s
viscosity (313.15 K, 101 kPa, x1 = 0.07555): 2.322 ± 0.023 mPa·s
viscosity (313.15 K, 101 kPa, x1 = 0.1616): 2.257 ± 0.022 mPa·s
viscosity (313.15 K, 101 kPa, x1 = 0.246): 2.224 ± 0.022 mPa·s
viscosity (313.15 K, 101 kPa, x1 = 0.3265): 2.215 ± 0.021 mPa·s
viscosity (313.15 K, 101 kPa, x1 = 0.4134): 2.23 ± 0.022 mPa·s
viscosity (313.15 K, 101 kPa, x1 = 0.5065): 2.272 ± 0.022 mPa·s
viscosity (313.15 K, 101 kPa, x1 = 0.5908): 2.328 ± 0.022 mPa·s
viscosity (313.15 K, 101 kPa, x1 = 0.6928): 2.415 ± 0.023 mPa·s
viscosity (313.15 K, 101 kPa, x1 = 0.7919): 2.515 ± 0.024 mPa·s
viscosity (313.15 K, 101 kPa, x1 = 0.878): 2.61 ± 0.025 mPa·s

O=S(=O)([O-])[O-].[Na+].[Na+] + O
viscosity (293.15 K, 100 kPa, x1 = 0.003594): 1.085 ± 0.023 mPa·s
viscosity (293.15 K, 100 kPa, x1 = 0.004923): 1.125 ± 0.031 mPa·s
viscosity (293.15 K, 100 kPa, x1 = 0.01069): 1.29 ± 0.027 mPa·s
viscosity (293.15 K, 100 kPa, x1 = 0.01596): 1.483 ± 0.032 mPa·s
viscosity (293.15 K, 100 kPa, x1 = 0.02116): 1.67 ± 0.035 mPa·s
viscosity (293.15 K, 100 kPa, x1 = 0.02795): 1.939 ± 0.041 mPa·s
viscosity (293.15 K, 101.3 kPa, x1 = 0.0009): 1.025 ± 0.022 mPa·s
viscosity (293.15 K, 101.3 kPa, x1 = 0.0018): 1.046 ± 0.022 mPa·s
viscosity (293.15 K, 101.3 kPa, x1 = 0.00893): 1.236 ± 0.026 mPa·s
viscosity (293.15 K, 101.3 kPa, x1 = 0.0125): 1.349 ± 0.029 mPa·s
viscosity (293.15 K, 101.3 kPa, x1 = 0.0177): 1.548 ± 0.033 mPa·s
viscosity (293.15 K, 101.3 kPa, x1 = 0.02116): 1.701 ± 0.036 mPa·s
viscosity (298.15 K, 100 kPa, x1 = 6e-05): 0.8907 ± 0.0073 mPa·s
viscosity (298.15 K, 100 kPa, x1 = 0.00013): 0.8915 ± 0.0073 mPa·s
viscosity (298.15 K, 100 kPa, x1 = 0.00025): 0.8935 ± 0.0073 mPa·s
viscosity (298.15 K, 100 kPa, x1 = 0.00038): 0.8955 ± 0.0074 mPa·s
viscosity (298.15 K, 100 kPa, x1 = 0.003594): 0.967 ± 0.021 mPa·s
viscosity (298.15 K, 100 kPa, x1 = 0.01069): 1.148 ± 0.024 mPa·s
viscosity (298.15 K, 100 kPa, x1 = 0.01596): 1.315 ± 0.028 mPa·s
viscosity (298.15 K, 100 kPa, x1 = 0.02116): 1.508 ± 0.032 mPa·s
viscosity (298.15 K, 100 kPa, x1 = 0.02795): 1.766 ± 0.038 mPa·s
viscosity (298.15 K, 101 kPa, x1 = 0.00893): 1.099 ± 0.064 mPa·s
viscosity (298.15 K, 101 kPa, x1 = 0.0168): 1.349 ± 0.082 mPa·s
viscosity (298.15 K, 101 kPa, x1 = 0.0222): 1.556 ± 0.098 mPa·s
viscosity (298.15 K, 101 kPa, x1 = 0.03141): 2.023 ± 0.14 mPa·s
viscosity (298.15 K, 101.3 kPa, x1 = 0.0009): 0.9113 ± 0.019 mPa·s
viscosity (298.15 K, 101.3 kPa, x1 = 0.0018): 0.9298 ± 0.02 mPa·s
viscosity (298.15 K, 101.3 kPa, x1 = 0.00893): 1.1 ± 0.023 mPa·s
viscosity (298.15 K, 101.3 kPa, x1 = 0.0125): 1.201 ± 0.025 mPa·s
viscosity (298.15 K, 101.3 kPa, x1 = 0.0177): 1.374 ± 0.029 mPa·s
viscosity (298.15 K, 101.3 kPa, x1 = 0.02116): 1.505 ± 0.032 mPa·s
viscosity (298.15 K, 101.3 kPa, x1 = 0.02631): 1.72 ± 0.036 mPa·s
viscosity (298.15 K, 101.33 kPa, x1 = 0.03319): 1.746 ± 0.046 mPa·s
viscosity (303.15 K, 100 kPa, x1 = 0.003594): 0.868 ± 0.018 mPa·s
viscosity (303.15 K, 100 kPa, x1 = 0.01069): 1.025 ± 0.022 mPa·s
viscosity (303.15 K, 100 kPa, x1 = 0.01596): 1.171 ± 0.025 mPa·s
viscosity (303.15 K, 100 kPa, x1 = 0.02116): 1.343 ± 0.029 mPa·s
viscosity (303.15 K, 100 kPa, x1 = 0.02795): 1.584 ± 0.034 mPa·s
viscosity (303.15 K, 101.3 kPa, x1 = 0.0009): 0.8166 ± 0.017 mPa·s
viscosity (303.15 K, 101.3 kPa, x1 = 0.0018): 0.8339 ± 0.018 mPa·s
viscosity (303.15 K, 101.3 kPa, x1 = 0.00893): 0.9866 ± 0.021 mPa·s
viscosity (303.15 K, 101.3 kPa, x1 = 0.0125): 1.076 ± 0.023 mPa·s
viscosity (303.15 K, 101.3 kPa, x1 = 0.0177): 1.229 ± 0.026 mPa·s
viscosity (303.15 K, 101.3 kPa, x1 = 0.02116): 1.345 ± 0.029 mPa·s
viscosity (303.15 K, 101.3 kPa, x1 = 0.02631): 1.531 ± 0.032 mPa·s
viscosity (308.15 K, 100 kPa, x1 = 6e-05): 0.7195 ± 0.0061 mPa·s
viscosity (308.15 K, 100 kPa, x1 = 0.00013): 0.7205 ± 0.0061 mPa·s
viscosity (308.15 K, 100 kPa, x1 = 0.00025): 0.722 ± 0.0061 mPa·s
viscosity (308.15 K, 100 kPa, x1 = 0.00038): 0.724 ± 0.0061 mPa·s
viscosity (308.15 K, 100 kPa, x1 = 0.00128): 0.7637 ± 0.0063 mPa·s
viscosity (308.15 K, 100 kPa, x1 = 0.003594): 0.787 ± 0.017 mPa·s
viscosity (308.15 K, 100 kPa, x1 = 0.01069): 0.933 ± 0.02 mPa·s
viscosity (308.15 K, 100 kPa, x1 = 0.01596): 1.053 ± 0.022 mPa·s
viscosity (308.15 K, 100 kPa, x1 = 0.02116): 1.205 ± 0.026 mPa·s
viscosity (308.15 K, 100 kPa, x1 = 0.02795): 1.419 ± 0.03 mPa·s
viscosity (308.15 K, 101.3 kPa, x1 = 0.0009): 0.7374 ± 0.016 mPa·s
viscosity (308.15 K, 101.3 kPa, x1 = 0.0018): 0.7529 ± 0.016 mPa·s
viscosity (308.15 K, 101.3 kPa, x1 = 0.00893): 0.8914 ± 0.019 mPa·s
viscosity (308.15 K, 101.3 kPa, x1 = 0.0125): 0.9716 ± 0.021 mPa·s
viscosity (308.15 K, 101.3 kPa, x1 = 0.0177): 1.107 ± 0.023 mPa·s
viscosity (308.15 K, 101.3 kPa, x1 = 0.02116): 1.21 ± 0.025 mPa·s
viscosity (308.15 K, 101.3 kPa, x1 = 0.02631): 1.373 ± 0.029 mPa·s
viscosity (308.65 K, 100 kPa, x1 = 0.004923): 0.803 ± 0.022 mPa·s
viscosity (318.15 K, 101.3 kPa, x1 = 0.0009): 0.6114 ± 0.013 mPa·s
viscosity (318.15 K, 101.3 kPa, x1 = 0.0018): 0.624 ± 0.013 mPa·s
viscosity (318.15 K, 101.3 kPa, x1 = 0.00893): 0.7405 ± 0.016 mPa·s
viscosity (318.15 K, 101.3 kPa, x1 = 0.0125): 0.8058 ± 0.017 mPa·s
viscosity (318.15 K, 101.3 kPa, x1 = 0.0177): 0.916 ± 0.019 mPa·s
viscosity (318.15 K, 101.3 kPa, x1 = 0.02116): 0.9978 ± 0.021 mPa·s
viscosity (318.15 K, 101.3 kPa, x1 = 0.02631): 1.127 ± 0.024 mPa·s
viscosity (323.15 K, 101 kPa, x1 = 0.00893): 0.676 ± 0.034 mPa·s
viscosity (323.15 K, 101 kPa, x1 = 0.0168): 0.819 ± 0.044 mPa·s
viscosity (323.15 K, 101.33 kPa, x1 = 0.05655): 1.545 ± 0.041 mPa·s

Reference: the CheMixHub viscosity set
